# Experiments:
# [1] = biological target: T1, glutathione transferase (Rattus norvegicus, UniProt P04905); test: Glutathione transferase inhibition activity (3,4-dichloronitrobenzene/glutathione, absorption at 345 nm); type: biochemical
# T1 construct: obtained from a homogenate of rat liver; from tissue; host or cells: rat liver homogenate, partially purified by DEAE-cellulose column and ammonium sulfate salting-out
# Protocol: The glutathione transferase inhibition activity was determined by a modified method based on the known method described in Biochemical and Biophysical Research Communications, 112, 980-985 (1983).
# A test tube was charged with a solution mixture consisting of (a) 0.1 ml of 90 mM glutathione (reduction type), (b) 0.05 ml of 20 mM 3,4-dichloronitrobenzene, (c) 1.7 ml of 0.1M potassium phosphate buffer solution (pH 7.4) and (d) 0.1 ml of an aqueous solution containing the test compound. The solution mixture was heated to 37° C. for 3 minutes, and admixed with 0.05 ml of a glutathione transferase solution to effect a reaction at 37° C. for 30 minutes. The glutathione transferase solution employed was one which had been obtained from a homogenate of rat liver and which had been patially refined by means of a DEAE-cellulose column and of salting out-operation with ammonium sulfate.
# After the completion of the reaction, the sample was measured for the light absorption (a) at 345 nm. At the same time, a control sample which was free of the test compound and which contained only the buffer solution was measured for the light absorption (b) at 345 nm.
# The glutathione transferase inhibition activity was determined according to the formula: […]
# IC50, which is the concentration of a test compound required for 50% inhibition, was recorded.
# [2] = tested on: spleen cells (LPS lymphocyte blast formation reaction); test: Suppression of LPS-induced lymphocyte blast formation, [3H]-thymidine uptake (Test 2); type: cell-based, BALB/c mouse; conditions: Mus musculus, LPS 100 μg/ml, 72 hours, read-out: IC50, 50% suppression of lymphocyte blast formation (LPS)
# Protocol: (§1) A pharmacological test was made about a suppression activity of benastatins on the lymphocyte blast formation reaction.
# (§2) In this test, use was made of an RPMI 1640 culture medium supplemented with 20% bovin fetus serum, 25 mM Hepes buffer, 100 μg/ml streptomycin and 100 units/ml penicillin G. The cultivation was effected by using microplate (COSTAR) with a flat bottom and with 96 wells. As mitogens, use was made of lipopolysaccharide (LPS) and concanavalin A (Con A) at concentrations of 100 and 5 μg/ml, respectively.
# (§3) After spleen cells were taken out from BALB/c mouse (female, 25 weeks old), a unicellular suspension of the spleen cells was prepared, and then subjected to a hyper shock treatment to remove erythrocytes therefrom.
# (§4) Each well was charged with 0.2 ml of a sample which contained 2×10^5 spleen cells and the test compound at a predetermined concentration. The cultivation was conducted for 72 hours. Before 8 hours from the completion of cultivation, each well was further charged with 37 KBq of [^3 H]-thymidine to determine the amount of the thymidine taken into the cells. […]
# [3] = tested on: spleen cells (Con A lymphocyte blast formation reaction); test: Suppression of Con A-induced lymphocyte blast formation, [3H]-thymidine uptake (Test 2); type: cell-based, BALB/c mouse; conditions: Mus musculus, Con A 5 μg/ml, 72 hours, read-out: IC50, 50% suppression of lymphocyte blast formation (Con A)
# Protocol: as §1, §2, §3, §4
# [4] = tested on: mouse; test: Toxicity on administration to the abdominal cavity; type: in vivo; conditions: 100 mg/kg
# Text: Benastatins A and B were each administered to the abdominal cavity of a mouse to examine the toxicity thereof.
# [5] = tested on: Bacillus cereus ATCC10702; test: Agar dilution assay, minimum growth inhibition concentration; type: cell-based
# Protocol: (§5) The minimum of microorganism growth inhibition concentrations of benastatins A and B were determined for various bacteria, east and fungi according to a conventional agar dilution assay method. It will be seen from Table 1 that benastatins A and B have a satisfactory antimicrobial activity, particularly against gram-positive bacteria, etc.
# [6] = tested on: Bacillus subtilis NRRL B-558; test: as above; type: cell-based; conditions: NRRLB558
# Protocol: as §5
# [7] = tested on: Cochliobolus miyabeanus; test: as above; type: cell-based; conditions: Bipolaris oryzae
# Protocol: as §5
# [8] = tested on: Corynebacterium bovis 1810; test: as above; type: cell-based
# Protocol: as §5
# [9] = tested on: Cryptococcus neoformans F-10; test: as above; type: cell-based; conditions: F10
# Protocol: as §5
# [10] = tested on: Micrococcus luteus FDA16; test: as above; type: cell-based
# Protocol: as §5
# [11] = tested on: Staphylococcus aureus MS9610; test: as above; type: cell-based
# Protocol: as §5
# [12] = tested on: Staphylococcus aureus Smith; test: as above; type: cell-based
# Protocol: as §5
# [13] = tested on: Staphylococcus aureus No. 5 (MRSA); test: as above; type: cell-based; conditions: read-out: Minimum growth-inhibition concentration
# [14] = tested on: Staphylococcus aureus No. 17 (MRSA); test: as above; type: cell-based; conditions: read-out: Minimum growth-inhibition concentration
# [15] = tested on: Escherichia coli NIHJ; test: as above; type: cell-based; conditions: Escherichia coli NIHJ; read-out: Minimum growth-inhibition concentration
# [16] = tested on: Shigella dysenteriae JS11910; test: as above; type: cell-based; conditions: JS11910, read-out: Minimum growth-inhibition concentration
# [17] = tested on: Salmonella typhi T-63; test: as above; type: cell-based; conditions: Salmonella enterica
# [18] = tested on: Proteus rettgeri GN311; test: as above; type: cell-based; conditions: Providencia rettgeri; Proteus rettgeri GN311; read-out: Minimum growth-inhibition concentration
# [19] = tested on: Pseudomanas aeruginosa A3; test: as above; type: cell-based; conditions: Pseudomanas aeruginosa A3; read-out: Minimum growth-inhibition concentration
# [20] = tested on: Klebsiella pneumoniae PCI602; test: as above; type: cell-based; conditions: Klebsiella pneumoniae PCI602; read-out: Minimum growth-inhibition concentration
# [21] = tested on: Mycabacterium smegmatis ATCC607; test: as above; type: cell-based; conditions: Mycabacterium smegmatis ATCC607; read-out: Minimum growth-inhibition concentration
# [22] = tested on: Candida tropicalis F-1; test: as above; type: cell-based; conditions: F1; Candida tropicalis F-1; read-out: Minimum growth-inhibition concentration
# [23] = tested on: Saccharomyces cerevisiae F-7; test: as above; type: cell-based; conditions: F7; Saccharomyces cerevisiae F-7; read-out: Minimum growth-inhibition concentration
# [24] = tested on: Pyricularia oryzae; test: microbe, parasite or virus in culture; type: cell-based; conditions: read-out: Minimum growth-inhibition concentration
# [25] = tested on: Aspergillus niger F-16; test: Agar dilution assay, minimum growth inhibition concentration; type: cell-based; conditions: F16; Aspergillus niger F-16; read-out: Minimum growth-inhibition concentration
# [26] = Solubility
# T1 sequence (P04905 2-218 limits assumed): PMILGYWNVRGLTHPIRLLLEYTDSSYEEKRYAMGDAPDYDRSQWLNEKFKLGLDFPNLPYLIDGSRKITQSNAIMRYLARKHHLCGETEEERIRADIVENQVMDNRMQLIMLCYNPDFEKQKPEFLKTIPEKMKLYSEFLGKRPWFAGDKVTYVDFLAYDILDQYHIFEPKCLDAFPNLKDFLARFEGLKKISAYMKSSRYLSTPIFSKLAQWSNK
compound,measurement,setting,value
"CCCCCc1cc2ccc3c(O)c4c(cc3c2c(O)c1C(=O)O)C(C)(C)c1cc(O)cc(O)c1C4=O [Benastatin A, benastatin A]",IC50,[1],4.99 µM
same,IC50,[2],7.7 µg/mL
same,IC50,[3],7.3 µg/mL
same,Toxicity,[4],No toxicity was observed
same,MIC,[5],3.12 µg/mL
same,MIC,[6],3.12 µg/mL
same,MIC,[7],> 25 µg/mL
same,MIC,[8],3.12 µg/mL
same,MIC,[9],50 µg/mL
same,MIC,[10],3.12 µg/mL
same,MIC,[11],3.12 µg/mL
same,MIC,[12],3.12 µg/mL
same,MIC,[13],3.12 µg/mL
same,MIC,[14],3.12 µg/mL
same,MIC,[15],100 µg/mL
same,MIC,[16],> 50 µg/mL
same,MIC,[17],> 50 µg/mL
same,MIC,[18],50 µg/mL
same,MIC,[19],> 50 µg/mL
same,MIC,[20],> 50 µg/mL
same,MIC,[21],50 µg/mL
same,MIC,[22],> 50 µg/mL
same,MIC,[23],> 100 µg/mL
same,MIC,[24],50 µg/mL
same,MIC,[25],> 50 µg/mL
same,Solubility in organic solvents,"[26]; dimethyl sulfoxide, methanol, acetone, ethyl acetate",soluble
same,Solubility in water,[26]; water,insoluble

# From patent publication US5117052A, “Physiologically active substances, benastatins A and B, and production and use thereof” (priority 1990, dated 1992)
